Source: patent US10695341B2, “Compositions and methods for treating endometriosis” (UNIVERSITY OF SOUTH FLORIDA, priority 2014, dated 2020)

Tests used:
endometriotic lesions [1] = assay: Immunohistochemistry of lesions (CK8, ERα, PR); assay type: in vivo, mouse; conditions: PR immunohistochemical staining, lesions from HCQ-treated mice
Protocol: Collected samples were immediately preserved in 10% neutral buffered formalin at the animal facility. Samples were embedded in paraffin, sectioned, and transferred to slides for hematoxylin/eosin and immunohistochemical staining. A pathologist reviewed each case and delimited the region of interest, containing epithelial and stromal cells, for each specimen. A mouse tissue microarray was prepared at the Tissue Core Facility at the Moffitt Cancer Center. The mouse tissue microarray contained a total of 113 core samples, which included 10 uterine horns and 10 ovaries from both PBS and HCQ treated mice. As control specimens for the utilized antibodies, the TMA included mouse mammary tissue, liver, small intestine, and lymph nodes from a PBS treated mouse. Lesions were analyzed from independent blocks. Slides were stained using a Leica Bond RX automated system (Leica Biosytems, Buffalo Grove, Ill.) following manufacturers instructions with proprietary reagents. Slides were deparaffinized on an automated system with Dewax Solution (Leica Biosystems). […]

[2] = test system: life-extended human endometriotic cells; assay: CellTiter-glo survival assay, life-extended human endometriotic cells, HCQ; assay type: cell-based; conditions: 25 μM HCQ, 5 days, cells from two different types of lesions, p<0.0001
Protocol: Primary human endometriotic cells culture conditions and life extension have been previously described. These cells were derived from two different types of lesions (two independent patients) which were assessed separately as described below. Briefly, cells were maintained in MCDB 131:Medium 199 (1:1 ratio) supplemented with 8% FBS, penicillin/streptomycin, and insulin/transferrin/selenium (ITS). Cells were life-extended using SV40 Large T antigen. Retroviral particles generated in HEK293T were used to infect the primary cells. Media containing puromycin (2.5 μg/ml) was used to select primary cells resistant colonies. In addition, we obtained the T-HESC cell line, which are human endometrial stromal cells derived from a uterine myoma (ATCC, Manassas, Va.). This cell line was maintained in phenol red-free DMEM/F12 (1:1) containing 8% charcoal-dextran treated FBS, 500 ng/mL puromycin, 1% ITS+ Premix (BD Bioscience, San Jose, Calif.), and 15 mM HEPES. The cell lines used in the present study were tested to be mycoplasma negative and STR (short tandem repeat) profiled (Genetica DNA Laboratories, Cincinnati, Ohio). Endometriotic cells were seeded at 50,000 cells/well in a 24-well plate, whereas T-HESC cells were seeded at 250,000 cells/well in a 6-well plate. […] Cell viability was then assessed using CellTiter-glo reagent (Promega, Madison, Wis.).

endometriotic lesions [3] = assay: Induced murine endometriosis model, lesion count (Example 6); assay type: in vivo, C57BL/6 mice
Protocol: To determine whether treatment with HCQ alters the formation of endometriotic lesions, an induced model of murine endometriosis in which mice receive injections of uterine horn fragments that develop into lesions within 2 weeks was utilized. Receipient (endometriosis-induced) mice were treated with 60 mg/kg HCQ21 or phosphate-buffered saline (PBS, FIG. 12). This treatment was repeated once every seven days post-induction. Mice that were neither injected with uterine horn fragments nor treated were used as controls (FIG. 39). All of the mice were euthanized at the same time (14 days after endometriosis induction for both the PBS and HCQ treatment groups). Ectopic lesions that developed in the recipient mice (white arrow, FIGS. 40A-40B) were counted, measured, and collected for RNA and protein analysis, as well as for histological staining. […] The majority (87.5%) of endometriosis-induced mice developed lesions. At the time of collection, we noted that the endometriotic lesions varied in size, color, and location across the treatment groups.
Five-week-old C57BL/6 female mice were purchased from Jackson laboratories. All animals were maintained under standard 12 h photoperiod; food and water were available ad libitum throughout the study. […] Lesions were measured using a caliper. Volume of the lesions was calculated according to the formula: 4/3πr^2R.

What does the source list for `CCN(CCO)CCCC(C)Nc1ccnc2cc(Cl)ccc12` (stereo not shown) [HCQ, hydroxychloroquine]?
stained lesions with absence of glandular components (endometriotic lesions [1]): four out of the seven; cell survival of human endometriotic cells [2]: marked reduction; number of lesions that developed vs PBS (endometriotic lesions [3]; 60 mg/kg HCQ i.p., repeated after seven days, 14 days after induction, p=0.0007): significant reduction; total number of lesions in treatment group (endometriotic lesions [3]; 60 mg/kg HCQ, n=25 mice (PBS: 46 lesions in n=24)): 18
